Experimental findings from article PMC7562955 (Nature Communications, 2020) are described below.

For this assay, the target named is T1, TLR7 extracellular domain (Macaca mulatta, UniProt B3Y653, N167Q/N389Q/N488Q/N799Q).
T1 construct: Monkey (Macaca mulatta) TLR7 extracellular domain expression construct; protein A tag (C, cleaved yes); made in house; host or cells: Drosophila S2 cells
T1 sequence (B3Y653 with tags, fused parts or gaps N167Q/N389Q): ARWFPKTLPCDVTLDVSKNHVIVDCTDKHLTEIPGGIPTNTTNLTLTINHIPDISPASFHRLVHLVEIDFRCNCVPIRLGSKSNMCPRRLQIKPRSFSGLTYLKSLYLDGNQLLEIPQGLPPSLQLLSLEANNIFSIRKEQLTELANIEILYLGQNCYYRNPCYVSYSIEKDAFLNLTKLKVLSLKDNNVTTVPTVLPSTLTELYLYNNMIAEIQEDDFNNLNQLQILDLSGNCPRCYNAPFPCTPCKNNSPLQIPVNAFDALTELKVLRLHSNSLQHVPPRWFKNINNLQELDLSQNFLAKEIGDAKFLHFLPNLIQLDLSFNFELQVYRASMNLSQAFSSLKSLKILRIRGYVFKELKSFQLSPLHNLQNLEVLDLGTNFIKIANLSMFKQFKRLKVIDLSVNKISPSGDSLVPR
T1 sequence (B3Y653 with tags, fused parts or gaps N488Q/N799Q): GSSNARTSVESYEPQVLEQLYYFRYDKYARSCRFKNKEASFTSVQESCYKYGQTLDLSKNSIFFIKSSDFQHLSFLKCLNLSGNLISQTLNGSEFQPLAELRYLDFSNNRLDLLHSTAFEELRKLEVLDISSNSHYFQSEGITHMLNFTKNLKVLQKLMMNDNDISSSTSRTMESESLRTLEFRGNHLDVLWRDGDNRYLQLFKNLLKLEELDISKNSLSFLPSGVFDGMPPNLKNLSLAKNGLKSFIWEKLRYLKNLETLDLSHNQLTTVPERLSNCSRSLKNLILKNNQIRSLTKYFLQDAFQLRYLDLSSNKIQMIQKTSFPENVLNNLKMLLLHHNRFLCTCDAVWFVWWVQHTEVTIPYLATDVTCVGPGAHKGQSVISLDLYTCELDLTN
In words: ITC titration to TLR7 recombinant protein. Conditions: pH 4.7; read-out: Dissociation constant KD. Format: binding, Monkey (Macaca mulatta). How it is done: The recombinant TLR7 proteins expressed in Drosophila S2 cells (Thermo Fisher Scientific) using Monkey (Macaca mulatta) TLR7 extracellular domain expression construct with N167Q, N399Q, N488Q and N799Q mutations and cleavable Z-loop and C-terminal protein A tag were prepared and were stored in a buffer containing 10 mM Tris-HCl pH 7.5 and 150 mM NaCl at concentrations of 10–15 mg ml^−1. Briefly, the purification steps included IgG affinity purification, the Z-loop and the protein A tag cleavage, and gel-filtration chromatography. Glycan-trimmed TLR7 proteins, expressed in the presence of 1.5 mg l^−1 kifunensine (Glycosyn) and treated by Endo Hf (New England Biolabs) were used for crystallization. Glycan-untrimmed proteins were used in ITC analysis, crosslinking assay, negative-staining EM and cryo-EM (200 kV microscopes) analyses. Glycan-trimmed TLR7 proteins with partially-uncleaved protein A tag were used for cryo-EM analysis using Tatan Krios (Supplementary Fig. 11).
ITC experiments (Fig. 2a) were conducted at 298 K in a final buffer condition of ~30 mM citrate-NaOH pH 4.7 or pH 5.7 (Hampton Research), 150 mM NaCl by using a MicroCal iTC200 (Malvern Panalytical). […]
(ITC needs no label: the signal is the heat of the interaction.)

The Kd is the concentration at which binding is half-saturated. On to `CCOc1nc(N)c2nc(-c3cncc(F)c3)n(Cc3ccc(CN4C[C@@H]5C[C@H]4CN5C)cc3)c2n1` [Cpd-6], for which the Kd amounted to 10 µM.

On to `CCOc1nc(C)c2nc(-c3cncc(F)c3)n(Cc3ccc(CN4C[C@@H]5C[C@H]4CN5C)cc3)c2n1` [Cpd-7], for which the equilibrium dissociation constant (Kd) came out at 7.4 µM.
